In paper PMC4793301, “From chlorite dismutase towards HemQ–the role of the proximal H-bonding network in haeme binding” (Bioscience Reports, 2016):

How the values were obtained:
[1] = molecular target: T1, NdCld (chlorite dismutase from 'Candidatus Nitrospira defluvii') (Nitrospira defluvii, UniProt B3U4H7); experiment: UV-vis titration, Soret band […] nm; assay type: binding; set-up: gene cld; TEV-cleavable N-terminal Strep-II tag, modified pET-21b(+), E. coli Tuner (DE3) with hemin added; haeme b pentamer
T1 sequence (B3U4H7 27-264): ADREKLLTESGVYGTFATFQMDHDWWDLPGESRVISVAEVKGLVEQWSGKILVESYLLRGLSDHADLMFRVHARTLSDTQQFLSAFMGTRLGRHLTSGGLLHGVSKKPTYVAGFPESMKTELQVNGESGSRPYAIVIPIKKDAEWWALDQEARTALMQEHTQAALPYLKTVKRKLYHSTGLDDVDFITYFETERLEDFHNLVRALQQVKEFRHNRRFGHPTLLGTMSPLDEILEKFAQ

NdCld wild-type = experiment: Titration of SCN− and F− to NdCld wild-type, UV–vis, dissociation constant; assay type: binding, Candidatus Nitrospira defluvii; settings: pH 5.5, 25°C
Procedure: SCN^− and F^− were titrated to NdCld wild-type for the determination of the dissociation constant (KD). The UV–visible electronic absorption spectrum of wild-type NdCld is altered upon binding of SCN^− or F^− if the respective ligand acts as a sixth ligand to haeme b. Binding of F^− was monitored by the change in absorbance at 612 nm [charge transfer band (CT1)] and binding of SCN^− was followed at 411 nm (Soret band). The measurements were performed using a Zeiss Specord S10 DiodeArray spectrophotometer equipped using a quartz cuvette with a path length of 10 mm under constant stirring at 25°C. Samples of 2 μM concentration in 50 mM MES buffer, pH 5.5, were used. Final ligand concentrations were 120 mM (F^−) and 50 mM (SCN^−).

[2] = molecular target: T1, NdCld (chlorite dismutase from 'Candidatus Nitrospira defluvii'); experiment: DSC, absolute Tm with ligand; assay type: binding; set-up: gene cld; TEV-cleavable N-terminal Strep-II tag, modified pET-21b(+), E. coli Tuner (DE3) with hemin added; haeme b pentamer; settings: 50 mM MES pH 5.5
BsHemQ = molecular target: BsHemQ; set-up: method as in PMID 20543190; settings: read-out: KD of haeme binding; cited from earlier work
SaHemQ = molecular target: SaHemQ; set-up: method as in PMID 23737523; settings: read-out: KD of haeme binding; cited from earlier work
LmHemQ = molecular target: LmHemQ; set-up: method as in PMID 25602700; settings: read-out: KD of haeme binding; cited from earlier work
[3] = molecular target: T1, NdCld (chlorite dismutase from 'Candidatus Nitrospira defluvii'); experiment: biochemical; set-up: gene cld
[4] = tested on: NdCld (chlorite dismutase), substrate chlorite; experiment: Chlorite degradation, O2 release with Clark-type electrode (steady state); assay type: biochemical, Candidatus Nitrospira defluvii; settings: 200 mM fluoride, 175 μM chlorite, pH 5.5
Procedure: Cld-mediated chlorite reduction and concomitant oxygen generation was monitored by measuring the release of O2 using a Clark-type electrode (Oxygraph Plus; Hansatech Instruments). The electrode was inserted into a stirred water bath maintained at 30°C. The electrode was equilibrated to 100% O2 saturation by flushing with O2, further 0% saturation was achieved by bubbling with N2 until a plateau was reached. Reactions were carried out in O2-free 50 mM MES buffer, pH 5.5. […] A high excess of ligands (200 mM F^−, 10 mM SCN^−) was present in the respective measurements. […] Molecular oxygen production rates (μM O2 s^−1) were obtained from the initial linear time traces (initial velocities, v0) for direct comparison.

[5] = molecular target: T1, NdCld (chlorite dismutase from 'Candidatus Nitrospira defluvii'); set-up: gene cld; settings: 200 mM fluoride, 175 μM chlorite, 50 nM enzyme, 50 mM MES pH 5.5, 30 °C

N#CS [SCN^−, thiocyanate]
Kd [1]: 150 ± 40 µM
Kd (NdCld wild-type; SCN− to wild-type protein): 150 ± 40 µM
Tm ([2]; 10 mM thiocyanate, main peak): 94 °C

C=CC1=C(C)c2cc3[n-]c(cc4[n-]c(cc5nc(cc1n2)C(C)=C5C=C)c(C)c4CCC(=O)O)c(CCC(=O)O)c3C.[Fe+2] [haeme, haeme b]
Kd (BsHemQ): 30 to 40 µM
Kd (SaHemQ): 1 µM
Kd (LmHemQ): 7 to 16 µM

F [F^−, fluoride]
Kd [3]: 5900 ± 400 µM
Kd (NdCld wild-type; F− to wild-type protein): 5900 ± 400 µM
Tm ([2]; 200 mM fluoride): 102 °C
v0 of wild-type NdCld remaining relative to ligand free [4]: 53%
v0 remaining [5]: 53%
